Measured values from patent EP0068806A2, “Basic acyl amides of (5-amino-1,3-dialkylpyrazol-4-yl)(aryl)methanones, processes for their production, and pharmaceutical compositions containing such compounds” (WARNER-LAMBERT COMPANY, priority 1981, dated 1983).

Each compound was assayed on Long-Evans rats or squirrel-monkeys (assay: Conditioned lever-press avoidance of electric footshock (antipsychotic activity)). Conditions: avoidance test for antipsychotic activity; Long-Evans rats or squirrel-monkeys (species per value not stated).
Type: in vivo
Experimental: Representative compounds of the invention (identified in the examples) were also tested for antipsychotic activity according to the following protocol. The noted compounds had the indicated ED50 values (mg/kg) and are considered active as antipsychotic agents in the test procedure.
Mature male Long-Evans rats or squirrel-monkeys are conditioned to push a lever in order to avoid a painful electric footshock. If the animal fails to push the. lever, he receives a shock every 10 seconds until the lever is pushed. Shocks can be terminated by pushing the lever. Thereafter, as long as the lever is pushed at least once every 20 seconds, there will be no shock.
Each animal acts as its own control; one weekly session is used to establish baseline behavior and another session later in the week is used as a drug session. Once patterns of avoidance are established, the effects of standard and unknown compounds are studied.
All events are electronically programmed and the response to these events counted or used as feed-back to the program.
Compound Cc1nn(C)c(NC(=O)CN2CCCC2)c1C(=O)c1ccccc1F [Compound 1, N-[4-(2-Fluorobenzoyl)-1,3-dimethyl-1H-pyrazol-5-yl]-1-pyrrolidineacetamide] has an ED50 of 48.2 mg/kg. Cc1nn(C)c(NC(=O)CN2CCCCC2)c1C(=O)c1ccccc1F [Compound 5, N-[4-(2-Fluorobenzoyl)-1,3-dimethyl-1H-pyrazol-5-yl]-1-piperidine-acetamide] gave an ED50 of 48 mg/kg. In the case of CCN(CC)CC(=O)Nc1c(C(=O)c2ccccc2F)c(C)nn1C [Compound 6, 2-(Diethylamino)-N-[4-(2-fluorobenzoyl)-1,3-dimethyl-1H-pyrazol-5-yl]acetamide], the ED50 was 25.6 mg/kg. In the case of Cc1nn(C)c(NC(=O)CNCC2(C)OCCO2)c1C(=O)c1ccccc1F [Compound 8, N-[4-(2-Fluorobenzoyl)-1,3-dimethyl-1H-pyrazol-5-yl]-3-[[(2-methyl-1,3-dioxolan-2-yl)methyl]amino]acetamide], the ED50 was 36.4 mg/kg. For Cc1nn(C)c(NC(=O)CN2CC3CCC(CC3)C2)c1C(=O)c1ccccc1F [Compound 9, N-[4-(2-Fluorobenzoyl)-1,3-dinethyl-1H-pyrazol-5-yl]-3-azabicyclo-[3,2,2]nonane-3-acetamide], the ED50 was 36.3 mg/kg. Cc1nn(C)c(NC(=O)CNCCCN2CCCCC2C)c1C(=O)c1ccccc1F (stereo not drawn) [Compound 20, N-[4-(2-Fluorobenzoyl)-1,3-dimethyl-1H-pyrazol-5-yl]-2-[[3-(2-methyl-1-piperidinyl)propyl]amino]acetamide] showed an ED50 of 21.4 mg/kg. For Cc1nn(C)c(NC(=O)CNCCCN2CCOCC2)c1C(=O)c1ccccc1F [Compound 35], the ED50 was 51.6 mg/kg. With CC1=C(NCCN(C)CC(=O)Nc2c(C(=O)c3ccccc3F)c(C)nn2C)CCC1=O [Compound 38, N-[4-(2-Fluorobenzoyl}-1,3-dimethyl-1H-pyrazol-5-yl]-2-[mothyl[2-[(2-methyl-3-oxo-1-cyclopenten-1-yl}amino]ethyl]amino]acetamide] the ED50 was 21.7 mg/kg. Compound Cc1nn(C)c(NC(=O)CSCCCN2CCCCC2C)c1C(=O)c1ccccc1F (stereo not drawn) [Compound 43, N-[4-(2-Fluorobenzoyl)-1,3-dimethyl-1H-pyrazol-5-yl]-2-[[3-(2-methyl-1-piperidinyl)propyl]thio]acetamide] has an ED50 of 26.5 mg/kg.
